Results from PubChem BioAssay (NCI).
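Tested at 5 concentrations; 48 h exposure; 96-well plates; endpoints linearly interpolated, else capped at highest concentration. At the GI50, growth is halved. TGI marks complete inhibition of growth.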

Assays:
Assay in all cases: DTP human tumour cell line panel, 48 h
[1] = test system: M14 melanoma
[2] = test system: MDA-MB-231 breast
[3] = test system: HOP-62 NSCLC
[4] = test system: SR leukemia
[5] = test system: MDA-MB-435
[6] = test system: OVCAR-3 ovarian
[7] = test system: MCF7 breast
[8] = test system: NCI-H23 lung
[9] = test system: HT29 colon
[10] = test system: LOX IMVI melanoma
[11] = test system: MDA-MB-468 breast
[12] = test system: BT-549 breast
[13] = test system: HCT-116 colon
[14] = test system: UACC-62 melanoma
[15] = test system: DU-145 prostate
[16] = test system: SF-539 CNS
[17] = test system: ACHN renal
[18] = test system: SK-MEL-5 melanoma
[19] = test system: COLO 205 colon
[20] = test system: T-47D breast
[21] = test system: UO-31 renal
[22] = test system: NCI-H522 lung
[23] = test system: HOP-92 NSCLC
[24] = test system: NCI-H460 lung
[25] = test system: EKVX NSCLC
[26] = test system: SNB-19 CNS
[27] = test system: MALME-3M melanoma
[28] = test system: NCI/ADR-RES ovarian
[29] = test system: SNB-75 CNS
[30] = test system: UACC-257 melanoma
[31] = test system: OVCAR-8 ovarian
[32] = test system: SF-295 CNS
[33] = test system: KM12 colon
[34] = test system: A498 renal
[35] = test system: SK-MEL-2 melanoma
[36] = test system: SW-620 colon
[37] = test system: OVCAR-5 ovarian
[38] = test system: PC-3 prostate
[39] = test system: SK-MEL-28 melanoma
[40] = test system: SK-OV-3 ovarian
[41] = test system: SN12C renal
[42] = test system: NCI-H226 lung
[43] = test system: RPMI-8226 leukemia
[44] = test system: HCC-2998 colon
[45] = test system: TK-10 renal
[46] = test system: CAKI-1 renal
[47] = test system: HL-60(TB) leukemia
[48] = test system: A549 NSCLC
[49] = test system: CCRF-CEM leukemia
[50] = test system: K-562 leukemia
[51] = test system: HCT-15 colon
[52] = test system: IGROV1 ovarian
[53] = test system: MOLT-4 leukemia
[54] = test system: 786-0 renal
[55] = test system: OVCAR-4 ovarian
[56] = test system: SF-268 CNS
[57] = test system: RXF 393 renal
[58] = test system: U251 CNS
[59] = test system: HS 578T breast

**Q.** Which results are given for `COCOc1cc2c(=O)c(C)c(C(=O)N[C@@H](Cc3ccccc3)C(O)C(=O)NCc3ccccc3)oc2cc1OC` (stereo partly drawn)?
**A.** GI50 [1]: 62.5 µM; TGI [1]: > 100 µM; GI50 [2]: > 100 µM; TGI [2]: > 100 µM; GI50 [3]: > 100 µM; TGI [3]: > 100 µM; GI50 [4]: > 100 µM; TGI [4]: > 100 µM; GI50 [5]: > 100 µM; TGI [5]: > 100 µM; GI50 [6]: > 100 µM; TGI [6]: > 100 µM; GI50 [7]: > 100 µM; TGI [7]: > 100 µM; GI50 [8]: > 100 µM; TGI [8]: > 100 µM; GI50 [9]: > 100 µM; TGI [9]: > 100 µM; GI50 [10]: > 100 µM; TGI [10]: > 100 µM; GI50 [11]: > 100 µM; TGI [11]: > 100 µM; GI50 [12]: > 100 µM; TGI [12]: > 100 µM; GI50 [13]: > 100 µM; TGI [13]: > 100 µM; GI50 [14]: > 100 µM; TGI [14]: > 100 µM; GI50 [15]: > 100 µM; TGI [15]: > 100 µM; GI50 [16]: 38.3 µM; TGI [16]: > 100 µM; GI50 [17]: > 100 µM; TGI [17]: > 100 µM; GI50 [18]: > 100 µM; TGI [18]: > 100 µM; GI50 [19]: > 100 µM; TGI [19]: > 100 µM; GI50 [20]: > 100 µM; TGI [20]: > 100 µM; GI50 [21]: > 100 µM; TGI [21]: > 100 µM; GI50 [22]: > 100 µM; TGI [22]: > 100 µM; GI50 [23]: > 100 µM; TGI [23]: > 100 µM; GI50 [24]: > 100 µM; TGI [24]: > 100 µM; GI50 [25]: > 100 µM; TGI [25]: > 100 µM; GI50 [26]: > 100 µM; TGI [26]: > 100 µM; GI50 [27]: > 100 µM; TGI [27]: > 100 µM; GI50 [28]: > 100 µM; TGI [28]: > 100 µM; GI50 [29]: 96.7 µM; TGI [29]: > 100 µM; GI50 [30]: > 100 µM; TGI [30]: > 100 µM; GI50 [31]: > 100 µM; TGI [31]: > 100 µM; GI50 [32]: > 100 µM; TGI [32]: > 100 µM; GI50 [33]: > 100 µM; TGI [33]: > 100 µM; GI50 [34]: > 100 µM; TGI [34]: > 100 µM; GI50 [35]: > 100 µM; TGI [35]: > 100 µM; GI50 [36]: > 100 µM; TGI [36]: > 100 µM; GI50 [37]: > 100 µM; TGI [37]: > 100 µM; GI50 [38]: > 100 µM; TGI [38]: > 100 µM; GI50 [39]: > 100 µM; TGI [39]: > 100 µM; GI50 [40]: > 100 µM; TGI [40]: > 100 µM; GI50 [41]: > 100 µM; TGI [41]: > 100 µM; GI50 [42]: > 100 µM; TGI [42]: > 100 µM; GI50 [43]: > 100 µM; TGI [43]: > 100 µM; GI50 [44]: > 100 µM; TGI [44]: > 100 µM; GI50 [45]: > 100 µM; TGI [45]: > 100 µM; GI50 [46]: > 100 µM; TGI [46]: > 100 µM; GI50 [47]: > 100 µM; TGI [47]: > 100 µM; GI50 [48]: > 100 µM; TGI [48]: > 100 µM; GI50 [49]: > 100 µM; TGI [49]: > 100 µM; GI50 [50]: > 100 µM; TGI [50]: > 100 µM; GI50 [51]: > 100 µM; TGI [51]: > 100 µM; GI50 [52]: > 100 µM; TGI [52]: > 100 µM; GI50 [53]: > 100 µM; TGI [53]: > 100 µM; GI50 [54]: > 100 µM; TGI [54]: > 100 µM; GI50 [55]: > 100 µM; TGI [55]: > 100 µM; GI50 [56]: > 100 µM; TGI [56]: > 100 µM; GI50 [57]: > 100 µM; TGI [57]: > 100 µM; GI50 [58]: > 100 µM; TGI [58]: > 100 µM; GI50 [59]: > 100 µM; TGI [59]: > 100 µM
